pIC50: −log10 of the molar value.
target: T1, human plasma protein factor Xa (Homo sapiens, UniProt P00742); assay: Factor Xa IC50 determination (cleavage of paranitroanilide substrate S-2765); type: biochemical; settings: factor Xa 1 nM, S-2765 100 μM, Tris buffered saline pH 7.4, read at 405 nm
T1 construct: The human plasma protein factor Xa was purchased; purchased Haematologic Technologies (Essex Junction, Vt.); host or cells: human plasma
Description: This example illustrates methods for evaluating the compounds of the invention, along with results obtained for such assays. The in vitro and in vivo human Factor Xa activities of the inventive compounds can be determined by various procedures known in the art, such as a test for their ability to inhibit the activity of human plasma Factor Xa. […] The IC50 value is the concentration (in nM) of the compound required to provide 50% inhibition of human Factor Xa proteolytic activity.
An in vitro assay for detecting and measuring inhibition activity against Factor Xa is as follows:
The substrate S-2765 (Z-D-Arg-Gly-Arg-pNA.HCl) was obtained from Diapharma (West Chester, Ohio).
The human plasma protein factor Xa was purchased from Haematologic Technologies (Essex Junction, Vt.).
All assays, which are performed in 96-well microtiter plates, measure proteolytic activity of the enzyme (factor Xa) by following cleavage of a paranitroanilide peptide substrate. The assay buffer used for proteolytic assays was Tris buffered saline (20 mM Tris, 150 mM NaCl, 5 mM CaCl2, 0.1% Bovine serum albumin (BSA), 5% Dimethly Sulfoxide (DMSO) pH 7.4). In a 96-well microtiter plate, inhibitor was serially diluted to give a range of final concentrations from 0.01 nM to 10 μM. Duplicate sets of wells were assayed and control wells without inhibitor were included. Enzyme was added to each well, (factor Xa concentration=1 nM), the plate was shaken for 5 seconds and then incubated for 5 minutes at room temperature. S-2765 was added (100 μM final) and the plate was shaken for 5 seconds (final volume in each well was 200 μl). The degree of substrate hydrolysis was measured at 405 nm on a Thermomax plate reader (Molecular Devices, Sunnyvale, Calif.) for 2 minutes. The initial velocities of substrate cleavage (mOD/min), for each range of inhibitor concentrations, were fitted to a four parameter equation using Softmax data analysis software. The parameter C, derived from the resulting curve-fit, corresponded to the concentration for half maximal inhibition (IC50).

T1 sequence (P00742 235-488 limits assumed): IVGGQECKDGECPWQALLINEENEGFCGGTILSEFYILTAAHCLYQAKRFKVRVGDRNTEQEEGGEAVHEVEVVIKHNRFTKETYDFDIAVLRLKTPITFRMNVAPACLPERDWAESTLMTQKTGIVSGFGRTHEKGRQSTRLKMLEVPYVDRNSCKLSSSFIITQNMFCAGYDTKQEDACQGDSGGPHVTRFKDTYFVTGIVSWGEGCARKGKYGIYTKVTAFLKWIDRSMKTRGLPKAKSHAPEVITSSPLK
T1 sequence (P00742 41-179 partner limits assumed): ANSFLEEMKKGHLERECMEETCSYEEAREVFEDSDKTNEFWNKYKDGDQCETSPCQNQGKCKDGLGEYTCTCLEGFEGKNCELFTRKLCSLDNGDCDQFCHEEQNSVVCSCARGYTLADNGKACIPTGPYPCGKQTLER

Compound	pIC50
CN(C)CCCOc1cc(-n2ccccc2=O)ccc1-n1cc(CNC(=O)c2ccc(Cl)s2)nn1 [Compound 92, 5-Chloro-N-((1-(2-(3-(dimethylamino)propoxy)-4-(2-oxopyridin-1(2H)-yl)phenyl)-1H-1,2,3-triazol-4-yl)methyl)thiophene-2-carboxamide]	≥ 7.00
O=C(NCc1cn(-c2ccc(-n3ccccc3=O)cc2OCCCN2CCCC2)nn1)c1ccc(Cl)s1 [Compound 93, 5-Chloro-N-((1-(4-(2-oxopyridin-1(2H)-yl)-2-(3-(pyrrolidin-1-yl)propoxy)phenyl)-1H-1,2,3-triazol-4-yl)methyl)thiophene-2-carboxamide]	≥ 7.00
O=C(NCc1cn(-c2ccc(-n3ccccc3=O)cc2OCCCN2CCCCC2)nn1)c1ccc(Cl)s1 [Compound 94, 5-Chloro-N-((1-(4-(2-oxopyridin-1(2H)-yl)-2-(3-(piperidin-1-yl)propoxy)phenyl)-1H-1,2,3-triazol-4-yl)methyl)thiophene-2-carboxamide]	≥ 7.00
O=C(NCc1cn(-c2ccc(-n3ccccc3=O)cc2OCCCN2CCOCC2)nn1)c1ccc(Cl)s1 [Compound 95, 5-Chloro-N-((1-(2-(3-morpholinopropoxy)-4-(2-oxopyridin-1(2H)-yl)phenyl)-1H-1,2,3-triazol-4-yl)methyl)thiophene-2-carboxamide]	≥ 7.00
O=C(NCc1cn(-c2ccc(-n3ccccc3=O)cc2OCc2nnn[nH]2)nn1)c1ccc(Cl)s1 [Compound 98, N-((1-(2-((1H-Tetrazol-5-yl)methoxy)-4-(2-oxopyridin-1(2H)-yl)phenyl)-1H-1,2,3-triazol-4-yl)methyl)-5-chlorothiophene-2-carboxamide]	≥ 7.00
O=C(NCc1cn(-c2ccc(-n3ccccc3=O)cc2OC(F)(F)F)nn1)c1ccc(Cl)s1 [Compound 99, 5-Chloro-N-((1-(4-(2-oxopyridin-1(2H)-yl)-2-(trifluoromethoxy)phenyl)-1H-1,2,3-triazol-4-yl)methyl)thiophene-2-carboxamide]	≥ 7.00
CN(C)CCNC(=O)c1cc(-n2ccccc2=O)ccc1-n1cc(CNC(=O)c2ccc(Cl)s2)nn1 [Compound 109, N-((1-(2-((2-(Dimethylamino)ethyl)carbamoyl)-4-(2-oxopyridin-1(2H)-yl)phenyl)-1H-1,2,3-triazol-4-yl)methyl)-5-chlorothiophene-2-carboxamide]	≥ 7.00
CN(C)CCN(C)C(=O)c1cc(-n2ccccc2=O)ccc1-n1cc(CNC(=O)c2ccc(Cl)s2)nn1 [Compound 111, 5-Chloro-N-((1-(2-((2-(dimethylamino)ethyl)(methyl)carbamoyl)-4-(2-oxopyridin-1(2H)-yl)phenyl)-1H-1,2,3-triazol-4-yl)methyl)thiophene-2-carboxamide]	6.30 to 7.00
O=C(NCc1cn(-c2ccc(-n3ccccc3=O)cc2C(=O)N2CCNCC2)nn1)c1ccc(Cl)s1 [Compound 113, 5-Chloro-N-((1-(4-(2-oxopyridin-1(2H)-yl)-2-(piperazine-1-carbonyl)phenyl)-1H-1,2,3-triazol-4-yl)methyl)thiophene-2-carboxamide]	6.30 to 7.00
O=C1CN(C(=O)c2cc(-n3ccccc3=O)ccc2-n2cc(CNC(=O)c3ccc(Cl)s3)nn2)CCN1 [Compound 114, 5-Chloro-N-((1-(2-(2-oxopiperazine-4-carbonyl)-4-(2-oxopyridin-1(2H)-yl)phenyl)-1H-1,2,3-triazol-4-yl)methyl)thiophene-2-carboxamide]	≥ 7.00

Next, values leading:

pIC50	Compound
6.30 to 7.00	O=C(O)COc1cc(-n2ccccc2=O)ccc1-n1cc(CNC(=O)c2ccc(Cl)s2)nn1 [Compound 96, 2-(2-(4-((2-Chlorothiophene-5-carboxamido)methyl)-1H-1,2,3-triazol-1-yl)-5-(2-oxopyridin-1(2H)-yl)phenoxy)acetic acid]
6.30 to 7.00	O=C(NCc1cn(-c2ccc(-n3ccccc3=O)cc2C(=O)O)nn1)c1ccc(Cl)s1 [Compound 100, 2-(4-((2-Chlorothiophcne-5-carboxamido)methyl)-1H-1,2,3-triazol-1-yl)-5-(2-oxopyridin-1(2H)-yl)benzoic acid]
≥ 7.00	NC(=O)c1cc(-n2ccccc2=O)ccc1-n1cc(CNC(=O)c2ccc(Cl)s2)nn1 [Compound 101, N-((1-(2-Carbamoyl-4-(2-oxopyridin-1(2H)-yl)phenyl)-1H-1,2,3-triazol-4-yl)methyl)-5-chlorothiophene-2-carboxamide]
≥ 7.00	CNC(=O)c1cc(-n2ccccc2=O)ccc1-n1cc(CNC(=O)c2ccc(Cl)s2)nn1 [Compound 102, 5-Chloro-N-((1-(2-(methylcarbamoyl)-4-(2-oxopyridin-1(2H)-yl)phenyl)-1H-1,2,3-triazol-4-yl)methyl)thiophenc-2-carboxamide]
≥ 7.00	CN(C)C(=O)c1cc(-n2ccccc2=O)ccc1-n1cc(CNC(=O)c2ccc(Cl)s2)nn1 [Compound 103, 5-Chloro-N-((1-(2-(dimethylcarbamoyl)-4-(2-oxopyridin-1(2H)-yl)phenyl)-1H-1,2,3-triazol-4-yl)methyl)thiophene-2-carboxamide]
6.30 to 7.00	O=C(NCc1cn(-c2ccc(-n3ccccc3=O)cc2C(=O)NCCO)nn1)c1ccc(Cl)s1 [Compound 104, N-((1-(2-((2-Hydroxyethyl)carbamoyl)-4-(2-oxopyridin-1(2H)-yl)phenyl)-1H-1,2,3-triazol-4-yl)methyl)-5-chlorothiophene-2-carboxamide]
6.30 to 7.00	O=C(NCc1cn(-c2ccc(-n3ccccc3=O)cc2C(=O)NCCCO)nn1)c1ccc(Cl)s1 [Compound 105, N-((1-(2-((3-Hydroxypropyl)carbamoyl)-4-(2-oxopyridin-1(2H)-yl)phenyl)-1H-1,2,3-triazol-4-yl)methyl)-5-chlorothiophene-2-carboxamide]
6.30 to 7.00	COCCNC(=O)c1cc(-n2ccccc2=O)ccc1-n1cc(CNC(=O)c2ccc(Cl)s2)nn1 [Compound 106, N-((1-(2-((2-Methoxyethyl)carbamoyl)-4-(2-oxopyridin-1(2H)-yl)phenyl)-1H-1,2,3-triazol-4-yl)methyl)-5-chlorothiophene-2-carboxamide]
6.30 to 7.00	NCCNC(=O)c1cc(-n2ccccc2=O)ccc1-n1cc(CNC(=O)c2ccc(Cl)s2)nn1 [Compound 107, N-((1-(2-((2-Aminoethyl)carbamoyl)-4-(2-oxopyridin-1(2H)-yl)phenyl)-1H-1,2,3-triazol-4-yl)methyl)-5-chlorothiophene-2-carboxamide]
6.30 to 7.00	NC(=O)CNC(=O)c1cc(-n2ccccc2=O)ccc1-n1cc(CNC(=O)c2ccc(Cl)s2)nn1 [Compound 108, N-((1-(2-((2-Amino-2-oxoethyl)carbamoyl)-4-(2-oxopyridin-1(2H)-yl)phenyl)-1H-1,2,3-triazol-4-yl)methyl)-5-chlorothiophene-2-carboxamide]
6.30 to 7.00	CNCCN(C)C(=O)c1cc(-n2ccccc2=O)ccc1-n1cc(CNC(=O)c2ccc(Cl)s2)nn1 [Compound 110, 5-Chloro-N-((1-(2-(methyl(2-(methylamino)ethyl)carbamoyl)-4-(2-oxopyridin-1(2H)-yl)phenyl)-1H-1,2,3-triazol-4-yl)methyl)thiophene-2-carboxamide]
6.30 to 7.00	NCCCNC(=O)c1cc(-n2ccccc2=O)ccc1-n1cc(CNC(=O)c2ccc(Cl)s2)nn1 [Compound 112, N-((1-(2-(3-aminopropylcarbamoyl)-4-(2-oxopyridin-1(2H)-yl)phenyl)-1H-1,2,3-triazol-4-yl)methyl)-5-chlorothiophene-2-carboxamide]

From patent US20110160196A1, “FACTOR XA INHIBITORS” (Millennium Pharmaceuticals, Inc., priority 2007, published 2011)
